The results in this text go back to ChEMBL document CHEMBL2176983, “Hispidin analogue davallialactone attenuates carbon tetrachloride-induced hepatotoxicity in mice” (J Nat Prod, 2012).

Active and inactive are the calls of the source. The calls are words filed in the database; no cut-off is given here.

Holding throughout (assay type): functional, organism-based
In test [1] the test system is Mus musculus. The test is described as follows: Hepatoprotective activity in CCL4-induced FVB mouse assessed as effect on CYP2E1 expression at 2.5 to 10 mg/kg, sc administered for 3 consecutive days prior CCL4 challenge measured 12 to 24 hrs post challenge by Western blot method relative to control. (A western blot detects proteins with antibodies after separation by electrophoresis.)

Test [2] has as its system Mus musculus. Put plainly: Hepatoprotective activity in CCL4-induced FVB mouse assessed as decrease in cleaved caspase3-positive hepatocytes at 2.5 to 10 mg/kg, sc administered for 3 consecutive days prior CCL4 challenge measured 24 hrs post challenge by immunofluorescence staining method relative to control. The conditions noted are these: Hepatocyte.
For test [3], the system named is Mus musculus. The test is described as follows: Hepatoprotective activity in CCL4-induced FVB mouse assessed as decrease in liver macrophages at 2.5 to 10 mg/kg, sc administered for 3 consecutive days prior CCL4 challenge measured 24 hrs post challenge by immunofluorescence staining method relative to control.
Test [4] relates to Mus musculus. The test is described as follows: Hepatoprotective activity in CCL4-induced FVB mouse assessed as increase in HO-1 expression at 2.5 to 10 mg/kg, sc administered for 3 consecutive days prior CCL4 challenge measured 12 to 24 hrs post challenge by Western blot method relative to control.
Test [5] has as its system Mus musculus. Put plainly: Hepatoprotective activity in CCL4-induced FVB mouse assessed as decrease in COX2 expression at 2.5 to 10 mg/kg, sc administered for 3 consecutive days prior CCL4 challenge measured 12 to 24 hrs post challenge by Western blot method relative to control.
Test [6] concerns Mus musculus. The test is described as follows: Hepatoprotective activity in CCL4-induced FVB mouse assessed as decrease in iNOS expression at 2.5 to 10 mg/kg, sc administered for 3 consecutive days prior CCL4 challenge measured 12 to 24 hrs post challenge by Western blot method relative to control.
Test [7] concerns Mus musculus. The test is described as follows: Hepatoprotective activity in CCL4-induced FVB mouse assessed as decrease in serum TNFalpha level at 2.5 to 10 mg/kg, sc administered for 3 consecutive days prior CCL4 challenge measured 12 to 24 hrs post challenge by ELISA relative to control. In general terms: In an ELISA, binding on a coated surface is turned into a signal by an enzyme label.

Test [8] deals with Mus musculus. Put plainly: Hepatoprotective activity in CCL4-induced FVB mouse assessed as increase in CYP2E1 p-nitrophenol activity at 2.5 to 10 mg/kg, sc administered for 3 consecutive days prior CCL4 challenge measured 12 to 24 hrs post challenge relative to control.
Test [9] deals with Mus musculus. Put plainly: Hepatoprotective activity in CCL4-induced FVB mouse assessed as restoration of Cu/Zn SOD expression at 2.5 to 10 mg/kg, sc administered for 3 consecutive days prior CCL4 challenge measured 12 to 24 hrs post challenge by Western blot method relative to control.
Test [10] concerns Mus musculus. The test is described as follows: Hepatoprotective activity in CCL4-induced FVB mouse assessed as reduction in serum MDA level at 2.5 to 10 mg/kg, sc administered for 3 consecutive days prior CCL4 challenge measured 12 to 24 hrs post challenge relative to control.
Test [11] deals with Mus musculus. The test is described as follows: Hepatoprotective activity in CCL4-induced FVB mouse assessed as reduction in ROS level at 10 mg/kg, sc administered for 3 consecutive days prior CCL4 challenge measured 12 to 24 hrs post challenge by DHE-labeling method relative to control. More on the design: dose 10 mg/kg.
For test [12], the system named is Mus musculus. Put plainly: Hepatoprotective activity in sc dosed CCL4-induced FVB mouse assessed as reduction in liver necrosis at administered for 3 consecutive days prior CCL4 challenge measured 24 hrs post challenge by hematoxylin/eosin-staining method relative to control.
Test [13] has as its system Mus musculus. Put plainly: Hepatoprotective activity in CCL4-induced FVB mouse assessed as reduction in liver necrosis at 10 mg/kg, sc administered for 3 consecutive days prior CCL4 challenge measured 12 hrs post challenge by hematoxylin/eosin-staining method relative to control. More on the design: dose 10 mg/kg.
For test [14], the system named is Mus musculus. Put plainly: Hepatoprotective activity in CCL4-induced FVB mouse assessed as reduction in liver necrosis at 2.5 to 10 mg/kg, sc administered for 3 consecutive days prior CCL4 challenge measured 12 to 24 hrs post challenge by hematoxylin/eosin-staining method relative to control.
The subject of test [15] is Mus musculus. The test is described as follows: Hepatoprotective activity in FVB mouse assessed as reduction of CCL4-induced increase of serum AST level at 2.5 to 10 mg/kg, sc administered for 3 consecutive days prior CCL4 challenge measured 12 to 24 hrs post challenge.
Test [16] concerns Mus musculus. The test is described as follows: Hepatoprotective activity in FVB mouse assessed as reduction of CCL4-induced increase of serum ALT level at 2.5 to 10 mg/kg, sc administered for 3 consecutive days prior CCL4 challenge measured 12 to 24 hrs post challenge.

`CC1=CC(=O)[C@H](c2c(O)cc(/C=C/c3ccc(O)c(O)c3)oc2=O)[C@@H](c2ccc(O)c(O)c2)O1`: the result with Mus musculus [1] was inactive. The outcome with Mus musculus [2], with Mus musculus [3], in the test with Mus musculus [4], with Mus musculus [5], in the test on Mus musculus [6] and in the test on Mus musculus [7] was Active. Besides, the outcome in the test on Mus musculus [8], in the test with Mus musculus [9], with Mus musculus [10], with Mus musculus [11], with Mus musculus [13] and with Mus musculus [14] was Active. Besides, the outcome with Mus musculus [15] and with Mus musculus [16] was Active. Moreover, the Activity result with Mus musculus [12] was “Dose-dependent effect”.
